Data published in PubChem BioAssay AID330 (DTP/NCI, 2004).
Where “and” joins values, the source holds several entries; their conditions need not be identical. Identical values can stand only once. Inconclusive results and toxic doses are left out.

System: P388 leukemia ip, CD2F1 mice, survival T/C
Assay: NCI In Vivo Anticancer Drug Screen. Data for tumor model P388 Leukemia (intraperitoneal) in CD2F1 (CDF1) mice
Details: endpoint: median survival time, higher = longer survival
Procedure, shortened: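 Mice carrying the transplanted tumor received test compound or vehicle. Survival was recorded in each group, and the value is the treated-group measurement divided by that of the vehicle-treated control group.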

[1] = dose: 50.0 mg/kg/injection, schedule: Q01DX009 (ip), vehicle: saline
[2] = dose: 200.0 mg/kg/injection, schedule: Q01DX009 (ip), vehicle: saline
[3] = dose: 60.0 mg/kg/injection, schedule: Q01DX005 (ip), vehicle: saline with Tween-80
[4] = dose: 120.0 mg/kg/injection, schedule: Q01DX005 (ip), vehicle: saline with Tween-80
[5] = dose: 240.0 mg/kg/injection, schedule: Q01DX005 (ip), vehicle: saline with Tween-80
[6] = dose: 200.0 mg/kg/injection, schedule: Q01DX009 (ip), vehicle: saline with Tween-80
[7] = dose: 50.0 mg/kg/injection, schedule: Q01DX009 (ip), vehicle: saline with Tween-80
[8] = dose: 100.0 mg/kg/injection, schedule: Q01DX009 (ip), vehicle: saline with Tween-80

`Nc1ccc2[se]ccc2c1` was tested, and the T/C (dose: 12.5 mg/kg/injection, schedule: Q01DX009 (ip), vehicle: suspension in saline) was 105 % of control, the T/C (dose: 25.0 mg/kg/injection, schedule: Q01DX009 (ip), vehicle: suspension in saline) was 100 % of control and the T/C [1] was 91 % of control. The T/C (dose: 50.0 mg/kg/injection, schedule: Q01DX009 (ip), vehicle: suspension in saline) was 100 % of control and the T/C [2] was 100 % of control.
With `O=C1OCc2nc3ccccc3cc21` the T/C (dose: 50.0 mg/kg/injection, schedule: Q04DX003 (ip), vehicle: Klucel (hydroxypropylcellulose) (HPC)) was 100 % of control, the T/C (dose: 100.0 mg/kg/injection, schedule: Q04DX003 (ip), vehicle: Klucel (hydroxypropylcellulose) (HPC)) was 98 % of control and the T/C (dose: 200.0 mg/kg/injection, schedule: Q04DX003 (ip), vehicle: Klucel (hydroxypropylcellulose) (HPC)) was 106 % of control.
`COc1cccc2c1C(=O)c1c(O)c3c(c(O)c1C2=O)CC(O)(C(N)=O)CC3OC1CC(N)C(O)C(C)O1` (stereo unspecified) was tested, and the T/C (dose: 0.39 mg/kg/injection, schedule: Q01DX009 (ip), vehicle: water) was 101 % of control and the T/C (dose: 6.25 mg/kg/injection, schedule: Q01DX009 (ip), vehicle: water) was 151 % of control.
With `OCC(COCCCCCCCCCCCCCC1C=CCC1)OCCCCCCCCCCCCCC1C=CCC1` (stereo unspecified) the T/C (dose: 100.0 mg/kg/injection, schedule: Q04DX003 (ip), vehicle: saline) was 96 % of control, the T/C (dose: 200.0 mg/kg/injection, schedule: Q04DX003 (ip), vehicle: saline) was 89 % of control and the T/C (dose: 400.0 mg/kg/injection, schedule: Q04DX003 (ip), vehicle: saline) was 93 % of control.
For `FC(F)(F)c1ccc(Cl)c(NC(=S)SC2CCCCC2)c1`, the T/C [1] was 100 % of control, the T/C (dose: 100.0 mg/kg/injection, schedule: Q01DX009 (ip), vehicle: saline) was 100 % of control and the T/C [2] was 97 % of control.
In the case of `CC(=O)OC(CC=C(C)C)C1=CC(=O)c2c(O)ccc(O)c2C1=O` (stereo unspecified), the T/C (dose: 6.25 mg/kg/injection, schedule: Q01DX005 (ip), vehicle: saline with Tween-80) is reported as 109 % of control and the T/C (dose: 12.5 mg/kg/injection, schedule: Q01DX005 (ip), vehicle: saline with Tween-80) is reported as 109 % of control.
In the case of `Cc1cc(=O)oc2cc3occc(=O)c3cc12`, the T/C [3] is reported as 98 % of control, the T/C [4] is reported as 95 % of control and the T/C [5] is reported as 92 % of control.
For `C/C(CC(C)C)=N\NC(=O)CNC(=O)c1ccccc1`, the T/C [3] was 100 % of control, the T/C [4] was 106 % of control and the T/C [5] was 95 % of control.
In the case of `CC(=O)OCC1OC(n2cnc(C(N)=S)c2N)C(OC(C)=O)C1OC(C)=O` (stereo unspecified), the T/C [3] is reported as 100 % of control, the T/C [4] is reported as 103 % of control and the T/C [5] is reported as 110 % of control.
In the case of `COC(=O)c1nc(N)nc(C(=O)OC)c1C(=O)c1ccc(N2CCN(c3ccc(C(=O)c4c(C(=O)OC)nc(N)nc4C(=O)OC)cc3)CC2)cc1`, the T/C [3] is reported as 98 % of control, the T/C [4] is reported as 97 % of control and the T/C [5] is reported as 91 % of control.
With `CN(N=O)c1ccc(/C=C/c2ccnc3ccccc23)cc1` the T/C (dose: 88.0 mg/kg/injection, schedule: Q01DX009 (ip), vehicle: saline with Tween-80) was 113 % of control, the T/C (dose: 132.0 mg/kg/injection, schedule: Q01DX009 (ip), vehicle: saline with Tween-80) was 118 % of control and the T/C [6] was 154 % of control.
For `CC12c3ccccc3C(C)(c3ccccc31)C(C(=O)O)C2Br` (stereo unspecified), the T/C (dose: 50.0 mg/kg/injection, schedule: Q01DX005 (ip), vehicle: Klucel (hydroxypropylcellulose) (HPC)) was 100 % of control, the T/C (dose: 100.0 mg/kg/injection, schedule: Q01DX005 (ip), vehicle: Klucel (hydroxypropylcellulose) (HPC)) was 103 % of control and the T/C (dose: 200.0 mg/kg/injection, schedule: Q01DX005 (ip), vehicle: Klucel (hydroxypropylcellulose) (HPC)) was 95 % of control.
With `CCOC(=O)C1=C(C(=O)c2ccc(C)cc2)C(c2c(Cl)cccc2Cl)C(C(=O)c2ccc(C)cc2)=C(C(=O)OCC)N1` the T/C (dose: 30.0 mg/kg/injection, schedule: Q01DX005 (ip), vehicle: saline with Tween-80) was 104 % of control, the T/C [3] was 102 % of control and the T/C [4] was 104 % of control and 90 % of control. The T/C [5] was 88 % of control.
In the case of `O=C1OC(C(Cl)(Cl)Cl)NC1Cc1ccccc1` (stereo unspecified), the T/C [7] is reported as 107 % of control, the T/C [8] is reported as 103 % of control and the T/C [6] is reported as 110 % of control.
`CCN(CC)CCOc1cccc2c1C(=O)c1c(O)cccc1C2=O` was tested, and the T/C (dose: 25.0 mg/kg/injection, schedule: Q01DX009 (ip), vehicle: saline with Tween-80) was 103 % of control and 95 % of control, the T/C [7] was 105 % of control and 97 % of control and the T/C [8] was 158 % of control.
